Source: patent US20250388544A1, “HETEROAROMATIC INHIBITORS OF ASTACIN PROTEINASES” (VIVORYON THERAPEUTICS N.V., priority 2019, published 2025)

Columns and labels:
Type in all cases: biochemical
[1] = target: T1, hMeprin β (Homo sapiens, UniProt Q16820); assay: Enzymatic assay, quenched peptide substrate cleavage, method A; settings: geometric mean (geometric SD factor in parentheses), read-out: Meprin beta IC50
T1 sequence (Q16820 62-701): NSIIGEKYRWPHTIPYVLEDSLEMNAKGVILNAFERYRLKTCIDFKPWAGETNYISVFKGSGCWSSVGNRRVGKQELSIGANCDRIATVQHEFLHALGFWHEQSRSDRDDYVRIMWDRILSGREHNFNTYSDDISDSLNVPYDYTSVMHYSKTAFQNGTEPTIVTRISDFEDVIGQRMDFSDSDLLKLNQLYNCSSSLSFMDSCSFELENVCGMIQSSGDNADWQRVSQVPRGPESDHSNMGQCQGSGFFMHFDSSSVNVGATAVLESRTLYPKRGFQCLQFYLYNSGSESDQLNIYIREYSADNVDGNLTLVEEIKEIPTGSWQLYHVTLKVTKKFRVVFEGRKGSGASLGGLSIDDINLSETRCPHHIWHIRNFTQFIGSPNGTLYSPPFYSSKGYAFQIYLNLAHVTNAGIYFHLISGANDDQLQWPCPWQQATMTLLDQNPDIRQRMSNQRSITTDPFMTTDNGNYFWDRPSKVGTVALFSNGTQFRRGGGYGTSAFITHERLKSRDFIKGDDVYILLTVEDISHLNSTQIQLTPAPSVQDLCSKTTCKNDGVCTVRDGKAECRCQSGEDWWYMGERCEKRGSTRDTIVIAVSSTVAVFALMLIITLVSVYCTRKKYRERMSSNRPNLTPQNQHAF
Procedure: (§1) The determination of enzymatic activity was based on the cleavage of internally quenched peptide substrates. A typical assay of 250 μl total volume measured in black 96 well plates consisted of 100 μl buffer, 50 μl enzyme at a final concentration of 5e-8 M to 2e-10 M, 50 μl substrate (0.15 to 80 μM, in buffer, 0.5% DMSO) and 50 μl inhibitor solution (in buffer, 1% DMSO). In case of 125 μl assay volume (black 96 half area well plates) all volumes were cut in half. Enzymatic activity of ADAMs was measured in 384 well plates with 60 μl total assay volume consisting of 20 μl inhibitor, 20 μl buffer, 10 μl enzyme and 10 μl substrate.
(§2) Based on method B Ki^(app) values were determined using Morrison's equation. All measurements were performed using a fluorescence plate reader (FLUOSTAR OPTIMA, BMG Labtech) at 30° C. The kinetic parameters were determined at least in duplicates on separate days. The excitation/emission wavelength was 340/420 nm. The kinetic data was evaluated using GRAFIT software (version 7.0.3, Erithacus Software).

[2] = target: T2, hMeprin α (Homo sapiens, UniProt Q16819); assay: as above; settings: geometric mean (geometric SD factor in parentheses), read-out: Meprin alpha IC50
T2 sequence (Q16819 66-746): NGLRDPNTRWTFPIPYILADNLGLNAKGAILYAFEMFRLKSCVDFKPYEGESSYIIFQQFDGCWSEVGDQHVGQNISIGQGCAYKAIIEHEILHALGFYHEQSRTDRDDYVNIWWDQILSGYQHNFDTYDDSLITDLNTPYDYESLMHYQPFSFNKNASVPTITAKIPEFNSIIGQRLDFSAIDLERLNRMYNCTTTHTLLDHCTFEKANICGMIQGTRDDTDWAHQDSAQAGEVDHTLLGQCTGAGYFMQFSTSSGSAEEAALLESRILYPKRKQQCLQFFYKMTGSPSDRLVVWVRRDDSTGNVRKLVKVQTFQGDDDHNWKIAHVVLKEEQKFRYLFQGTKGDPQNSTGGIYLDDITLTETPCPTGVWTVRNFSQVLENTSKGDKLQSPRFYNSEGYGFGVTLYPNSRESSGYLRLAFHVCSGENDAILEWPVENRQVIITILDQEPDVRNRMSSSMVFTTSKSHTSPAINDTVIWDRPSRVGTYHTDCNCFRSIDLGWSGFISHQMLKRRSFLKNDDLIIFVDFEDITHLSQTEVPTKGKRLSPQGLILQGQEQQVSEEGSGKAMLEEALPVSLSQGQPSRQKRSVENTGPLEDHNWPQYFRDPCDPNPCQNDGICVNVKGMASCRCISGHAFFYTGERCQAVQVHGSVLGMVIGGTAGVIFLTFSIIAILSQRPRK
Procedure: as §1, §2

[3] = target: T1, hMeprin β; assay: Enzymatic assay, quenched peptide substrate cleavage, method B; settings: geometric mean (geometric SD factor in parentheses); for Ki: Morrison's equation, read-out: Meprin beta Ki(app); for IC50: read-out: Meprin beta IC50
Procedure: as §1, §2

[4] = target: T2, hMeprin α; assay: as above; settings: geometric mean (geometric SD factor in parentheses); for Ki: Morrison's equation, read-out: Meprin alpha Ki(app); for IC50: read-out: Meprin alpha IC50
Procedure: as §1, §2

Row | IC50 [1] | IC50 [2] | Ki [3] | IC50 [3] | Ki [4] | IC50 [4] | Structure (SMILES)
1 | 214 nM | 693 nM |  |  |  |  | O=C(CNc1c(-c2cccc(C(=O)O)c2)nc2ccccn12)NO [Example 31, 3-[3-[[2-(Hydroxyamino)-2-oxo-ethyl]amino]-imidazo[1,2-a]pyridin-2-yl]benzoic acid]
2 | 486 nM | 2 nM |  |  |  |  | O=C(Cc1c(-c2ccccc2)ncn1-c1ccccc1)NO [Example 12, 2-(3,5-Diphenylimidazol-4-yl)ethanehydroxamic acid]
3 | 23 nM | 135 nM | 80 nM | 81 nM | 90 nM | 92 nM | O=C(Cc1c(-c2ccc(Cl)c(O)c2F)nc2ccccn12)NO [Example 28, 2-[2-(4-Chloro-2-fluoro-3-hydroxy-phenyl)imidazo-[1,2-a]pyridin-3-yl]ethanehydroxamic acid]
4 | 100 nM | 16 nM |  |  |  |  | O=C(Cc1c(-c2ccccc2)nn(-c2cccc(C(=O)O)c2)c1-c1ccccc1)NO [Example 38, 3-[4-[2-(Hydroxyamino)-2-oxo-ethyl]-3,5-diphenyl-pyrazol-1-yl]benzoic acid]
5 | 3140 nM | 655 nM |  |  |  |  | O=C(CNc1c(-c2ccc3c(c2)OCCO3)nc2ccccn12)NO [Example 32, 2-[[2-(2,3-Dihydro-1,4-benzodioxin-6-yl)imidazo-[1,2-a]pyridin-3-yl]amino]ethanehydroxamic acid]
6 | 15000 nM | 727 nM |  |  |  |  | O=C(CCn1c(-c2ccccc2)ccc1-c1ccccc1)NO [Example 10, 3-(2,5-Diphenylpyrrol-1-yl)propanehydroxamic acid]
7 | 154 nM | 21 nM |  |  |  |  | O=C(Cc1c(-c2ccccc2)nn(-c2ccc(C(=O)O)cc2)c1-c1ccccc1)NO [Example 37, 4-[4-[2-(Hydroxyamino)-2-oxo-ethyl]-3,5-diphenyl-pyrazol-1-yl]benzoic acid]
8 | 4560 nM | 273 nM |  |  |  |  | O=C(Cn1c(-c2ccccc2)nc2cccnc21)NO [Example 23, 2-(2-Phenylimidazo[4,5-b]pyridin-3-yl)ethane-hydroxamic acid]
9 | 1450 nM | 11 nM |  |  |  |  | O=C(Cc1c(-c2ccccc2)nnn1-c1ccccc1)NO [Example 11, 2-(3,5-Diphenyltriazol-4-yl)ethanehydroxamic acid]
10 | 28000 nM | 1130 nM | 31700 nM | 32400 nM | 701 nM | 708 nM | O=C(CCn1c(-c2ccccc2)nc2ccccc21)NO [Example 14, 3-(2-Phenylbenzimidazol-1-yl)propanehydroxamic acid]
11 | 176 nM | 2280 nM |  |  |  |  | O=C(CNc1c(-c2ccc(C(=O)O)cc2)nc2ccccn12)NO [Example 30, 4-[3-[[2-(Hydroxyamino)-2-oxo-ethyl]amino]-imidazo[1,2-a]pyridin-2-yl]benzoic acid]
12 | 3370 nM | 244 nM |  |  |  |  | O=C(Cc1c2ccccc2nn1-c1ccccc1)NO [Example 34, 2-(2-Phenylindazol-3-yl)ethanehydroxamic acid]
13 | 7120 nM | 793 nM |  |  |  |  | O=C(CNc1c(-c2ccccc2)nc2ccccn12)NO [Example 29, 2-[(2-Phenylimidazo[1,2-a]pyridin-3-yl)amino]-ethanehydroxamic acid]
14 | 15400 nM | 457 nM |  |  |  |  | O=C(CCn1nc(-c2ccccc2)cc1-c1ccccc1)NO [Example 6, 3-(3,5-Diphenylpyrazol-1-yl)propanehydroxamic acid]
15 | 10500 nM | 292 nM |  |  |  |  | O=C(Cn1nc(-c2ccccc2)cc1-c1ccccc1)NO [Example 5, 2-(3,5-Diphenylpyrazol-1-yl)ethanehydroxamic acid]
16 | 3100 nM | 6740 nM |  |  |  |  | O=C(CNc1c(-c2ccccc2)nc2c(C(=O)O)cccn12)NO [Example 33, 3-[[2-(Hydroxyamino)-2-oxo-ethyl]amino]-2-phenyl-imidazo[1,2-a]pyridine-8-carboxylic acid]
17 | 1200 nM | 105 nM |  |  |  |  | O=C(Cc1c(-c2ccccc2)[nH]c2ccccc12)NO [Example 27, 2-(2-Phenyl-1H-indol-3-yl)ethanehydroxamic acid]
18 | 42300 nM | 353 nM |  |  |  |  | O=C(CCn1c(-c2ccccc2)nnc1-c1ccccc1)NO [Example 8, 3-(3,5-Diphenyl-1,2,4-triazol-4-yl)propanehydroxamic acid]
